The experiment concerns M. tuberculosis H37Rv growth inhibition, 7H9 media. Briefly: M. tuberculosis growth inhibition, HTS (AID 449762).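 For all read-outs here: bacterial growth assessed after seven days of incubation.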 The settings on record: for IC90: measured here: IC90 growth inhibition.

pIC50: −log10 of the molar value. Records with an inconclusive call do not appear.

Broadly, the pIC50 is the negative decadic logarithm of the IC50, by convention in mol/L. Broadly, the IC90 is the point of the concentration-response curve where the effect stands at 90%.

On to `CC(C)(C)c1ccc(Cn2nnc3c(=O)[nH]c(C4CCCN(C(=O)Cc5cccs5)C4)nc32)cc1` (configuration not stated), for which the pIC50 is 4.45 and the IC90 came to 47.8 µM. Consider `COc1ccc(N/C=C/C(=O)c2sc(-c3ccccc3)nc2C)cc1`, for which the pIC50 was 4.51 and the IC90 was determined as 55.4 µM. On to `Cn1cnc(Sc2ncnc3nc[nH]c23)c1[N+](=O)[O-]`, for which the pIC50 was 5.01 and the IC90 is 17 µM.

Turning to `COC(=O)C(CCSC)NC(=O)c1cn(-c2ccc(OC)cc2)c(=O)c2ccccc12` (configuration not stated), the pIC50 was 4.92 and the IC90 is greater than 100 µM.

Consider `Cc1ccc(C(=O)Sc2cccccc2=O)cc1`, for which the pIC50 was 6.02 and the IC90 came to 2.48 µM. As to `C/C(=N\NC(=O)c1cc2ccccc2cc1O)c1ccc(C)o1`, the pIC50 is 5.00 and the IC90 was 36.3 µM.

On to `O=C(NC1CCCCCC1)c1ccccc1-c1ccccc1`, for which the pIC50 is 4.74 and the IC90 is greater than 100 µM. Turning to `CN1CCN(Cn2cc(/C=C/C(=O)c3ccccc3)c3ccccc32)CC1`, the pIC50 was 5.10 and the IC90 worked out at 26.3 µM. In the case of `S=C(NCCN1CCOCC1)N/N=C/c1cccs1`, the pIC50 is 5.26 and the concentration for an effect of 90% (IC90) is 6.22 µM.

Consider `COc1ccc(-c2nnn(CC(=O)OC3CCCCC3)n2)cc1OC`, for which the pIC50 is 5.24 and the IC90 is 62.7 µM. `COc1cccc(C(=O)NC2CC3CCCC(C2)N3CC(=O)Nc2ccc(N(C)C)cc2)c1` (configuration not stated): the pIC50 is 4.71 and the IC90 came out at 24.8 µM. Turning to `O=C1Nc2ccc(Br)cc2/C1=C/C(=O)c1ccc2c(c1)OCO2`, the pIC50 was 5.11 and the IC90 came out at 18.1 µM.

`O=C1NN(c2ccc(Br)cc2)C(=O)/C1=C\c1ccc(O)cc1O`: the pIC50 is 4.05 and the IC90 is greater than 100 µM. In the same order, the values of `COc1ccc(-c2nc(NC(=O)Cn3ccc(C(F)(F)F)n3)sc2C)cc1` are greater than 6.70 and 2.92 µM. Turning to `Cc1ccccc1N1CCN(c2ncnc3c2cnn3Cc2ccc(Cl)cc2)CC1`, the pIC50 is 5.29 and the IC90 was 8.72 µM. In the same order, the values of `Cn1nc(-c2ccc(N3CCCCC3)c(NC(=O)c3ccco3)c2)c2ccccc2c1=O` are 5.63 and 16.1 µM. Regarding `N#Cc1nccnc1S(=O)(=O)c1cccs1`, the pIC50 is 4.39 and the IC90 was 61.1 µM. In the case of `Cc1ccc(CN2CCC(c3cc(-c4ccc(Cl)cc4)n[nH]3)CC2)cc1`, the pIC50 is 4.94 and the IC90 was found to be 14.8 µM. Taken in the same sequence, the figures for `CCNc1nc(NC(C)(C)C)nc(N2CCCCC2)n1` were 4.00 and greater than 100 µM. With `Cc1cccc2c1N(CCCOc1ccc(C(C)(C)C)cc1)C(=O)C2=O`, the pIC50 is 4.76 and the IC90 came out at 20.7 µM. In the same order, the values of `CC(C)(O)[C@H]1O[C@H]2CC[C@@]3(C)[C@@](O)(CC[C@H]4Cc5c([nH]c6ccccc56)[C@@]43C)C2=CC1=O` are 4.38 and 63.9 µM. In the case of `Cc1cccc(CNc2ncnc3ccc(-c4ccc5c(c4)OCCO5)cc23)c1`, the pIC50 was 5.23 and the IC90 came to 6.77 µM.

In the case of `Cc1ccc(OC/C(O)=C(\C#N)c2nc3ccccc3s2)cc1`, the pIC50 is 4.68 and the IC90 was found to be 34 µM. Taken in the same sequence, the figures for `COCCCNC(=O)/C(C#N)=C/c1c(N2CCN(c3cccc(Cl)c3)CC2)nc2c(C)cccn2c1=O` were 4.27 and greater than 100 µM. Consider `C=CCn1cccc(/C=C/C(=O)c2ccc(C(C)(C)C)cc2)c1=S`, for which the pIC50 is 4.56 and the IC90 is 56.5 µM.

On to `O=c1cc(/C=C/c2ccccc2)oc2ccccc12`, for which the pIC50 is 4.44 and the IC90 is greater than 100 µM. In the same order, the values of `c1ccc(-c2nc3c(ccc4ccccc43)[nH]2)nc1` are 5.17 and 20.3 µM. Regarding `COc1ccc(-c2cc(-c3ccccc3)c(C#N)c(S(C)=O)n2)cc1` (configuration not stated), the pIC50 was 4.82 and the IC90 came out at 29 µM. Taken in the same sequence, the figures for `COc1cc2c(cc1OC)CN(CCC(=O)c1ccc(Br)cc1)CC2` were 4.92 and 13.7 µM.

Consider `Cc1ccc2[nH]c(C(=O)NN=C3CCCCC3)c(-c3ccccc3)c2c1`, for which the pIC50 is 4.54 and the IC90 worked out at 56.6 µM.

As for `CC(=O)n1cc(/C=C2/N=C(c3ccccc3)OC2=O)c2ccccc21`, the pIC50 was 4.51 and the IC90 came to 75.5 µM. Taken in the same sequence, the figures for `CCOC(=O)c1c(CC(C)C)csc1NC(=O)CCl` were greater than 6.70 and 7.5 µM.

For the compound `COc1cccc(N2CCN(c3ncnc4c3[nH]c3ccccc34)CC2C)c1` (configuration not stated), the pIC50 is 4.62 and the IC90 came out at 35.5 µM. Taken in the same sequence, the figures for `CCCCS(=O)(=O)/C=C\C=C/S(=O)(=O)CCCC` were 5.87 and 1.96 µM.

Regarding `Cn1nc(-c2ccccn2)nc2c(=O)n(C)c(=O)nc1-2`, the pIC50 was 5.04 and the IC90 came out at 14.5 µM. For the compound `O=C(CCl)NCc1cc(-c2ccc(Cl)cc2)no1`, the pIC50 was greater than 6.70 and the 90% effect concentration (IC90) was 1.33 µM. In the case of `Cc1cc(C(=O)COC(=O)C2=COCCO2)c(C)n1-c1cccc(F)c1`, the pIC50 was 5.32 and the IC90 was greater than 100 µM. In the same order, the values of `C/C(=N/Nc1ccnc2cc(Cl)ccc12)c1ccc(O)cc1` are 4.62 and 27.2 µM. Taken in the same sequence, the figures for `O=[N+]([O-])c1ccc(C2Oc3ccccc3C3CC(c4ccccc4)=NN32)s1` (configuration not stated) were 5.21 and 6.95 µM. On to `COC(=O)C(Cc1ccc(OC(=O)c2ccc(C(F)(F)F)cc2)cc1)N1Cc2ccccc2C1=O` (configuration not stated), for which the IC90 was greater than 100 µM. Regarding `O=c1c2ccccc2nc(/C=C/c2ccccc2)n1-c1ccc(O)cc1`, the IC90 is greater than 100 µM. As for `Cc1cc(OC(=O)c2cccs2)c2c3c(c(=O)oc2c1)CCCC3`, the pIC50 was 5.52 and the IC90 turned out to be 3.52 µM.

On to `COc1ccc(CNC(=O)c2c(N)n(CCCN3CCOCC3)c3nc4ccccc4nc23)cc1`, for which the pIC50 was 4.03 and the IC90 is greater than 100 µM. In the same order, the values of `CCCNC1=C(N(C(C)=O)c2cccc(F)c2)C(=O)c2ccccc2C1=O` are 4.94 and 20.1 µM.

With `Cc1nc(N)nc(N)c1CCCc1ccc(Cl)c(Cl)c1`, the pIC50 is 4.11 and the IC90 was greater than 100 µM. In the same order, the values of `COc1ccc(C(C[N+](=O)[O-])c2c(-c3ccccc3)cc3ccccn23)c(OC)c1` (configuration not stated) are 4.83 and 38.6 µM. Taken in the same sequence, the figures for `COc1ccc(NC(=O)CSC2=C(C#N)C(c3ccco3)C(C(=O)Nc3nc4ccccc4s3)=C(C)N2)cc1` (configuration not stated) were 5.25 and 7.26 µM. Taken in the same sequence, the figures for `COC(=O)c1ccc2c(=O)[nH]c(CSc3nc(C)cs3)nc2c1` were 4.16 and greater than 100 µM. Consider `COc1cccc(NC(=S)/C(=C(\[O-])c2cc(C)n(-c3ccccc3F)c2C)[n+]2ccc(N(C)C)cc2)c1`, for which the pIC50 was 4.25 and the IC90 was 70.9 µM. For the compound `Cc1ccc(C(=O)/C=C/C(=O)c2ccc(C)cc2)cc1`, the pIC50 was 5.69 and the IC90 is 7.63 µM. In the same order, the values of `N#Cc1ccc(CN2CCN(CC(=O)NCCc3ccc(Cl)cc3Cl)CC2)cc1` are 4.37 and 54 µM. In the same order, the values of `CN1CCN(/N=C/c2c3ccccc3c(Cl)c3ccccc23)CC1` are 4.11 and greater than 100 µM. Turning to `CNC(=S)Nc1ccc(N2CCN(c3ccc(C(F)(F)F)cn3)CC2)nc1`, the pIC50 was 5.00 and the IC90 is greater than 100 µM. Taken in the same sequence, the figures for `COc1ccc(C2CC2/C(C)=N/OC(=O)c2ccc(F)cc2)cc1` (configuration not stated) were 4.86 and 51.6 µM. Taken in the same sequence, the figures for `COc1cc2[nH]c3c(N4CCN(c5ccccn5)CC4)ncnc3c2cc1OC` were 4.87 and greater than 50 µM.

As to `Oc1ccc2ccccc2c1C1Nc2cccc3cccc(c23)N1`, the pIC50 is 4.13 and the IC90 was greater than 100 µM. In the same order, the values of `COc1ccc(NC(=O)CSc2nnc(-c3ccccn3)n2N)cc1Cl` are 4.74 and greater than 100 µM. Turning to `CC(/C=N/n1c(C2CCCCC2)n[nH]c1=S)=C\c1ccccc1`, the pIC50 is 4.31 and the IC90 came to 54.3 µM. Regarding `c1ccc(Cn2c3ccccc3c3nnc(SCCN4CCCCC4)nc32)cc1`, the pIC50 is 4.67 and the IC90 stood at 34.5 µM. In the case of `COC(=O)[C@H](CC(C)C)NC(=O)c1cc2c(cn1)[nH]c1ccccc12`, the pIC50 was 5.07 and the IC90 was 29.2 µM. Taken in the same sequence, the figures for `O=C(Nc1ccc(OCC(F)(F)C(F)F)c(C(F)(F)F)c1)c1ccc(Cl)cc1` were 4.45 and 47.1 µM.

`COC(=O)[C@H](CCSC)NC(=O)N1CCN(c2cccc(C(F)(F)F)c2)CC1`: the pIC50 is 4.84 and the IC90 was 40.5 µM. In the same order, the values of `COc1ccc(C2=NC(=O)/C(=C\c3cc(OC)c(OC)c(OC)c3)O2)cc1` are 5.24 and 49.3 µM.

For the compound `Nc1nc2ccccc2n1CCOc1ccccc1Cl`, the pIC50 is 4.92 and the IC90 turned out to be 13.3 µM. Taken in the same sequence, the figures for `O=C1N=C(N2CCC(Cc3ccccc3)CC2)S/C1=C/c1cn[nH]c1-c1ccccc1` were 4.56 and greater than 100 µM.

Consider `Cc1nn(-c2ccccc2)c2c1C(c1ccc([N+](=O)[O-])cc1)N1C(=N2)C(=O)Nc2ccccc21` (configuration not stated), for which the pIC50 is 4.38 and the IC90 was greater than 100 µM. For `CN(C)CCOc1ccc(-c2c(-c3ccsc3)sc3ccccc23)cc1`, the pIC50 is 4.88 and the IC90 was found to be 15.5 µM. As for `COC(=O)c1ccc(-c2ncc(-c3cccc4ccccc34)o2)cc1`, the pIC50 was 4.80 and the IC90 was 52.7 µM. In the same order, the values of `CCOC(=O)c1ccc(Nc2cc3ccccc3c(=O)[nH]2)cc1` are 4.14 and greater than 100 µM. As to `Cc1cc(-c2n[nH]c(=S)n2/N=C/C(Br)=C/c2ccccc2)n[nH]1`, the negative-log IC50 (pIC50) is 5.68 and the IC90 was 5.63 µM. In the same order, the values of `CC1CCCN(Cc2c(O)ccc3c(=O)c(-c4nc5ccccc5s4)c(N)oc23)C1` (configuration not stated) are 5.01 and 12.7 µM. In the same order, the values of `Cc1cc(NC(=O)CCl)no1` are 5.88 and 3.6 µM.

(Values after PubChem BioAssay AID449762 (Southern Research Specialized Biocontainment Screening …, 2010).)
